Assay results published in patent US9878007B2, “Syndecan peptides and polypeptides as inhibitors of vascular endothelial growth factor receptor-2 (VEGFR2) and very late antigen-4 (VLA-4)” (Wisconsin Alumni Research Foundation, priority 2015, dated 2018).
No end group written: not given here.

Key:
HMEC-1 cells [1] = test: Transwell migration / invasion assay of HMEC-1 cells; assay type: cell-based; settings: 16 hr
Description: (§1) FIGS. 8A-H. HPSE mediated the Sdc1-coupled VEGFR2 complex in endothelial cells induces angiogenesis. (FIG. 8A) Lysates from HPSE^low, HPSE^high and HMEC-1 cells are probed by immunoblotting for expression of HPSE. (FIG. 8B) HMEC-1 cells were seeded at equal density and grown in serum-free media for 24 hr in the absence or presence of 125 μg/ml of the HPSE inhibitor SST0001. After 24 hr, conditioned media were harvested, and the level of shed Sdc1 in the conditioned medium from each condition was determined by immunoblotting. (FIG. 8C) HMEC-1 cell lysate was incubated overnight with glutathione beads coated with GST or GST-S1ED. Capture of VLA-4 or VEGFR2 was detected by immunoblotting. (FIG. 8D) HMEC-1 cells were plated on IIICS for 3 hr and double stained for VLA-4 and Sdc1, VEGFR2 and Sdc1, or VLA-4 and VEGFR2. (FIG. 8E) HMEC-1 cells were treated with DMSO, VLA-4 blocking antibody P1H4, β1-integrin blocking antibody mAb13, 10 μg/ml MMP9 blocking antibody, 125 μg/ml HPSE inhibitor SST0001, Vandetanib, VEGFR2 blocking antibody, 30 μM S1ED^210-233 or 30 μM S1ED^214-240 and then plated on IIICS. Images were taken from random field with 200× magnification for counting attached and spread cells. (FIG. 8F) HMEC-1 cells were plated on IIICS in the presence of 10 μM of S1ED^210-236, S1ED^210-233, S1ED^215-240, and S1ED^214-240. Lysates were probed on immunoblots with antibodies against pY^1175 VEGFR2 and VEGFR2. (FIG. 8G) Transwell migration assays towards IIICS (for 16 hr) were performed for HMEC-1 cells in the presence of P1H4, SST0001, Anti-MMP9, Vandetanib, S1ED^210-236, S1ED^210-233, and S1ED^214-240. Images were taken from random field with 200× magnification for counting migrated cells. (FIG. 8H) A 96-well plate coated with 50 μl Matrigel containing 100 μg/ml IIICS per well was solidified at 37° C. for 2 hrs. […]
The bottom chambers of Transwell filter chambers (8 μm pores; Corning) were coated with 40 μg/ml of FN. […] Cells from at least five random fields were counted.

CAG myeloma cells = test: Cell spreading / attachment assay of CAG myeloma cells on FN or VCAM-1; assay type: cell-based, human; settings: 0.3 μM peptide; for induction of HPSE^low cell spreading by S1ED peptides: on VCAM-1
Description: Nitrocellulose-coated slides were coated for 2 hr at 37° C. with 40 μg/ml FN (kindly provided by Dr. Donna Peters, University of Wisconsin-Madison) or 5 μg/ml recombinant VCAM-1/Fc chimera (R&D Systems) in calcium and magnesium-free PBS (CMF-PBS; 135 mM NaCl, 2.7 mM KCl, 10.2 mM Na2HPO4-7H20 and 1.75 mM KH2PO4, pH7.4). Slides were blocked for 1 hr at 37° C. with RPMI 1640 containing 1% heat-denatured BSA (plating medium). Cells in plating medium were allowed to attach and spread for 2.5 hr at 37° C. Slides were fixed in 4% EM grade paraformaldehyde (Electron Microscopy Sciences) in CMF-PBS and labeled for 30 min in 0.13 μM rhodamine phalloidin (Invitrogen) in CMF-PBS. Coverslips were mounted in non-fluorescing mounting medium (Immumount; Thermo Shandon) and allowed to dry. All images were acquired with a Nikon Microphot FX microscope using a 20× objective (Nikon; Ex 541-551, DM 580, Barrier 590), Photometric CoolSnap ES camera, and version 7.7.3.0 Metamorph© Imaging software (Molecular Devices). All images represent results from triplicate wells and at least three independent experiments.

HMEC-1 cells [2] = test: Attachment and spreading of HMEC-1 cells on IIICS; assay type: cell-based; settings: plated on IIICS; 30 μM peptides, 125 μg/ml SST0001, 10 μg/ml MMP9 blocking antibody
Description: as §1, with “S1ED^214-240.” for “S1ED^214-240. Lysates were probed on immunoblots with antibodies against pY^1175 VEGFR2 and VEGFR2. (FIG. 8G) Transwell migration assays towards IIICS (for 16 hr) were performed for HMEC-1 cells in the presence of P1H4, SST0001, Anti-MMP9, Vandetanib, S1ED^210-236, S1ED^210-233, and S1ED^214-240. Images were taken from random field with 200× magnification for counting migrated cells. (FIG. 8H) A 96-well plate coated with 50 μl Matrigel containing 100 μg/ml IIICS per well was solidified at 37° C. for 2 hrs.”

[3] = test system: P3x63Ag8 mouse myeloma cells; test: Invasion of P3x63Ag8 myeloma cells through FN-coated filters; assay type: cell-based; settings: 16 hr
Description: FIG. 7A-B. S1ED^214-236, specific for VEGFR2 coupling to VLA-4, blocks myeloma cell invasion but not adhesion. (FIG. 7A) P3x63Ag8 mouse myeloma cells are plating on the VLA-4 ligand FN in the presence or absence of 30 uM S1ED^210-233 (SEQ ID No: 4) or S1ED^214-236 (SEQ ID No: 7) for 2.5 hr. (FIG. 7B) P3x63Ag8 myeloma cells are plated on FN-coated filters in the presence of HPSE inhibitor OGT2115, VLA-4 blocking antibody P1H4, VEGFR2 inhibitor Vandetanib or S1ED^210-233 or S1ED^214-236 and allowed to migrate through the filter for 16 hr. Small black dots are the pores in the filter.
The bottom chambers of Transwell filter chambers (8 μm pores; Corning) were coated with 40 μg/ml of FN. Cells (5×10^5 in 0.2 ml plating medium) were placed in the upper chamber and incubated for 16 hr at 37° C. in the CO2 incubator. After incubation, cells in the upper chamber were removed and cells on the bottom side of the filter were fixed in 4% paraformaldehyde (PFA) and stained with 0.1% Crystal Violet before imaging. Cells from at least five random fields were counted.

“DFTFETSGENTAVVAVEPDRRNQSPVD [S1ED^210-236]” was tested, and the “invasion of HMEC-1 cells” value (HMEC-1 cells [1]) was “all block invasion”, the “rescue of HPSE^high spreading blocked by MMP9 blocking antibody” value (CAG myeloma cells; on FN) was “rescued spreading in the presence of MMP9 inhibitor” and the “rescue of HPSE^high spreading blocked by Vandetanib” value (CAG myeloma cells; on FN, 1 μM Vandetanib) was “fails to rescue spreading blocked by Vandetanib”. The “induction of HPSE^low cell spreading by S1ED peptides” value (CAG myeloma cells) was “retains full activity”.

“S1ED^210-233: syndecan-1 ectodomain peptide, residues 210-233 (SEQ ID NO: 4) (DFTFETSGENTAVVAVEPDRRNQS)” was tested, and the “invasion of HMEC-1 cells” value (HMEC-1 cells [1]) was “all block invasion”, the “induction of HPSE^low cell spreading by S1ED peptides” value (CAG myeloma cells) was “do not” and the “VLA-4 dependent spreading of HMEC-1 cells” value (HMEC-1 cells [2]) was “prevented”. The “invasion / migration of P3X cells through FN-coated filters” value [3] was “blocked by either peptide”.
